The test system of test [1] is Hedgehog signaling pathway (Gli Reporter - NIH3T3 cell line). The test can be described thus: Hedgehog Reporter Assay (Gli-Reporter, luciferase, mSHH stimulated). In kind it is cell-based, murine. The note with it: Mus musculus; Gli Reporter NIH3T3 cells, 1 μg/ml mSHH, 24 h. On the procedure: In order to investigate the potency of test compounds to inhibit the Hedgehog signaling pathway, a Gli-Reporter assay was performed. The “Gli Reporter-NIH3T3” cell line contains the firefly luciferase gene under the control of Gli responsive elements stably integrated into murine NIH3T3 cells (cells purchased from AMS Biotechnology ltd., 184 Milton Park, Abingdon OX14 4SE, U.K.). The luciferase expression correlates with activation of the hedgehog signaling pathway. This cell line is validated for its response to stimulation with murine Sonic Hedgehog and to treatment with inhibitors of the hedgehog signaling pathway. A multiplexed viability assay was used to discriminate inhibition on the pathway activity from cell toxicity. Growth Medium: DMEM (Dulbecco's Modified Eagle Medium); 10% Fetal Calf Serum; 1% Penicillin/Streptomycin; 500 μg/ml Geneticin (G418 Stock 50 mg/ml). Assay Medium: Opti-MEM® Reduced Serum Medium; 0.5% Calf Serum; 1% non-essential amino acids; 1 mM Na-pyruvate; 10 mM HEPES; 1% Penicillin/Streptomycin. 25,000 cells per well were seeded into a white 96 well plate in 100 μl growth medium and incubated over night at 37° C. and 5% CO2. After removing the supernatant the test compounds and controls were added in different concentrations in a final volume of 45 μl and incubated for 1 h at 37° C. and 5% CO2. For the stimulation of the Hedgehog pathway 5 μl of 10 μg/ml concentrated murine SHH (or mSHH; murine sonic hedgehog protein) was added to the cells. A final concentration of 1 μg/ml mSHH and 0.1% DMSO was reached per well. After incubation for 24 h at 37° C. the cells were investigated for viability and reporter activity. Viability: For the determination of the viability of the treated cells the CellTiter-FluorTM Kit from Promega comprising the fluorogenic, cell-permeant peptide substrate ([…]-aminofluorocoumarin GF-AFC was used. Roughly, only proteases of viable cells are able to cleave the GF-AFC. By this cleavage the fluorescent AFC is set free and can be detected in a fluorescence reader. For this assay 10 μl of GF-AFC substrate (CellTiter-FluorTM, Promega #G6082) was diluted in 2 ml assay buffer from the CellTiter-FluorTM Kit and 10 μl of this dilution was added per well to the cells and incubated for 30 min at 37° C. The fluorescence was measured with an excitation of 380-400 nm and an emission of 505 nm. Reporter activity: The firefly luciferase reporter activity was detected with the ONE-GloTM Luciferase Assay System from Promega. For this assay 50 μl ONE-Glo luciferase reagent (Promega #E6120, contains cell lysis buffer and luciferin) was added to each well and incubated at room temperature for 5 min. Luminescence was detected in a plate reader and served as a measure for reporter activity.

The next test deals with DYRK1B (Homo sapiens (Human), UniProt Q9Y463). The test can be described thus: DYRK1B Kinase Assay (33P ATP, DYRKtide substrate, Reaction Biology Corp.). The following applies: 0.3 nM DYRK1B, 20 μM DYRKtide, 10 μM ATP, 25° C., 120 min. In kind it is biochemical. The procedure: The assay was carried out by Reaction Biology Corp., […], Pa., USA according to specifications by Reaction Biology Corp., as detailed herein below and further described in Anastassiadis et al., Nature Biotechnology, 29 (2011) 1039-1045. The substrate DYRKtide (synthetic peptide RRRFRPASPLRGPPK) was dissolved in freshly prepared Base Reaction Buffer (20 mM Hepes (pH 7.5), 10 mM MgCl2, 1 mM EGTA, 0.02% Brij35, 0.02 mg/ml BSA, 0.1 mM Na3VO4, 2 mM DTT, 1% DMSO) at a concentration of 20 μM. DYRK1B was added to the substrate solution in a concentration of 0.3 nM and gently mixed. Dilution series of the compounds according to the present invention in DMSO were prepared. Each dilution was added to a batch of the above reaction mix, followed 20 min later by addition of a mixture of ATP and ^33P ATP (specific activity 0.01 μCi/μl final) to a final concentration of 10 μM. Reactions were carried out at 25° C. for 120 min, followed by spotting the reactions onto P81 ion exchange filter paper. Unbound phosphate was removed by extensive washing of the filters in 0.75% phosphoric acid. […] IC50 values and curve fits were obtained using Prism (Graph Pad Software). DYRK1B used in the above assays are further described in the below table: [table] Exemplary compound dilution series, final concentrations of compound in the assay vessel; the individual concentrations and the range of concentrations covered by the dilution series may differ for each compound, as long as enough data points are obtained to determine the compound's IC50: DYRK 1[…].
Sequence of DYRK1B (Q9Y463 whole entry): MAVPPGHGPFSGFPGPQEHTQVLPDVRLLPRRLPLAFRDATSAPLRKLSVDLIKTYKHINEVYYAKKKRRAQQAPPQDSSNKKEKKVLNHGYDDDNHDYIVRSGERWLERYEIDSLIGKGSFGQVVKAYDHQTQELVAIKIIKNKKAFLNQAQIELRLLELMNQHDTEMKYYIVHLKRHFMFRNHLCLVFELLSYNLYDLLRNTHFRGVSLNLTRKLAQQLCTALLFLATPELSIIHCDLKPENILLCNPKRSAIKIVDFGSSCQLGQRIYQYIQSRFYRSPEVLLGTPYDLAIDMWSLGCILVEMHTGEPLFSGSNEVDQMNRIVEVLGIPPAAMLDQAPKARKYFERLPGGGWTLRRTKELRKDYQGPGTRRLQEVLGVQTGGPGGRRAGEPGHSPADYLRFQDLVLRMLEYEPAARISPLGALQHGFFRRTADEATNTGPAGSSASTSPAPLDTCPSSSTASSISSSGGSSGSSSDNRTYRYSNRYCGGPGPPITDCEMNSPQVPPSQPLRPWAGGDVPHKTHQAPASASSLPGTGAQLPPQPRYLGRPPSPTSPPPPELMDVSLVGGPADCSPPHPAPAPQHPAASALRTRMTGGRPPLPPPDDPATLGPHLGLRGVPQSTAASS

A value given as a limit tells only on which side of the number the result lay.

Usually IC50 stands for the concentration at which inhibition is half-maximal. Low values mean greater potency, high ones weaker potency. With `O=C(Nc1nc2cc(C(=O)N3CCOCC3)ccc2[nH]1)c1csc(-c2ccc3c(c2)CCO3)n1` [Compound 10, 2-(2,3-Dihydrobenzofuran-5-yl)-N-(5-(morpholine-4-carbonyl)-1H-benzo[d]imidazol-2-yl)thiazole-4-carboxamide], the IC50 is under 1000 nM in test [1] and 3.72 nM on DYRK1B.
Regarding `O=C(Nc1ncc[nH]1)c1csc(-c2ccc3c(c2)CCO3)n1` [Compound 11, 2-(2,3-Dihydrobenzofuran-5-yl)-N-(1H-imidazol-2-yl)thiazole-4-carboxamide], the half-maximal inhibitory concentration (IC50) in test [1] was 1000 to 3000 nM; on DYRK1B, 66.8 nM.
Regarding `O=C(Nc1nc2c(C(F)(F)F)cccc2[nH]1)c1csc(-c2ccc3c(c2)CCO3)n1` [Compound 12, 2-(2,3-Dihydrobenzofuran-5-yl)-N-(4-(trifluoromethyl)-1H-benzo[d]imidazol-2-yl)thiazole-4-carboxamide], the IC50 in test [1] is 3000 to 10000 nM; at DYRK1B, 156 nM.
For `COc1cccc(-c2c[nH]c(NC(=O)c3csc(-c4ccc5c(c4)CCO5)n3)n2)c1` [Compound 13, 2-(2,3-Dihydrobenzofuran-5-yl)-N-(4-(3-methoxyphenyl)-1H-imidazol-2-yl)thiazole-4-carboxamide], in that order: 1000 to 3000 nM and 111 nM.
Turning to `O=C(Nc1nc2cc(OC(F)(F)F)ccc2[nH]1)c1csc(-c2ccc3c(c2)CCO3)n1` [Compound 14, 2-(2,3-Dihydrobenzofuran-5-yl)-N-(6-(trifluoromethoxy)-1H-benzo[d]imidazol-2-yl)thiazole-4-carboxamide], the half-inhibitory concentration (IC50) is 1000 to 3000 nM in test [1] and 29.4 nM against DYRK1B.
For the molecule `O=C(Nc1ccccn1)c1csc(-c2ccc3c(c2)CCO3)n1` [Compound 17, 2-(2,3-Dihydrobenzofuran-5-yl)-N-(pyridin-2-yl)thiazole-4-carboxamide], the IC50 in test [1] is 3000 to 10000 nM; on DYRK1B it was 29.4 nM.
With `CNC(=O)c1n[nH]c(NC(=O)c2csc(-c3ccc4c(c3)CCO4)n2)n1` [Compound 19, 2-(2,3-Dihydrobenzofuran-5-yl)-N-(3-(methylcarbamoyl)-1H-1,2,4-triazol-5-yl)thiazole-4-carboxamide], the concentration for half-maximal inhibition (IC50) was 1000 to 3000 nM in test [1] and 9.68 nM at DYRK1B.
Taken in the same sequence, the figures for `O=C(Nc1nc2cc(C(=O)N3CCCC3)ccc2[nH]1)c1csc(-c2ccc3c(c2)CCO3)n1` [Compound 22, 2-(2,3-Dihydrobenzofuran-5-yl)-N-(5-(pyrrolidine-1-carbonyl)-1H-benzo[d]imidazol-2-yl)thiazole-4-carboxamide] were under 1000 nM and 0.852 nM.
`COCCNC(=O)c1ccc2[nH]c(NC(=O)c3csc(-c4ccc5c(c4)CCO5)n3)nc2c1` [Compound 23, 2-(2,3-Dihydrobenzofuran-5-yl)-N-(5-((2-methoxyethyl)carbamoyl)-1H-benzo[d]imidazol-2-yl)thiazole-4-carboxamide]: the half-inhibitory concentration (IC50) was under 1000 nM in test [1] and 0.699 nM against DYRK1B.
Take `O=C(Nc1nc(C(=O)NC2CC2)n[nH]1)c1csc(-c2ccc3c(c2)CCO3)n1` [Compound 25, N-(3-(Cyclopropylcarbamoyl)-1H-1,2,4-triazol-5-yl)-2-(2,3-dihydrobenzofuran-5-yl)thiazole-4-carboxamide]: the half-maximal inhibitory concentration (IC50) in test [1] is 1000 to 3000 nM; against DYRK1B it was 3.51 nM.
As to `O=C(Nc1nnc(C(=O)N2CCOCC2)[nH]1)c1csc(-c2ccc3c(c2)CCO3)n1` [Compound 26, 2-(2,3-Dihydrobenzofuran-5-yl)-N-(5-(morpholine-4-carbonyl)-4H-1,2,4-triazol-3-yl)thiazole-4-carboxamide], the IC50 in test [1] was 3000 to 10000 nM; at DYRK1B it was 85 nM.
For `CN1CCN(C(=O)c2nnc(NC(=O)c3csc(-c4ccc5c(c4)CCO5)n3)[nH]2)CC1` [Compound 27, 2-(2,3-Dihydrobenzofuran-5-yl)-N-(5-(4-methylpiperazine-1-carbonyl)-4H-1,2,4-triazol-3-yl)thiazole-4-carboxamide], in that order: 3000 to 10000 nM and 49.8 nM.
On to `O=C(Nc1nnc(C(=O)N2CCCC2)[nH]1)c1csc(-c2ccc3c(c2)CCO3)n1` [Compound 28, 2-(2,3-Dihydrobenzofuran-5-yl)-N-(5-(pyrrolidine-1-carbonyl)-4H-1,2,4-triazol-3-yl)thiazole-4-carboxamide], for which the values for the IC50 (in test [1]; against DYRK1B) were 3000 to 10000 nM and 47.1 nM, respectively.
Regarding `CN(C)C(=O)c1n[nH]c(NC(=O)c2csc(-c3ccc4c(c3)CCO4)n2)n1` [Compound 29, 2-(2,3-Dihydrobenzofuran-5-yl)-N-(5-(dimethylcarbamoyl)-4H-1,2,4-triazol-3-yl)thiazole-4-carboxamide], the IC50 was 3000 to 10000 nM in test [1] and 72 nM against DYRK1B.
For `O=C(Nc1nc(SCc2ccccc2)n[nH]1)c1csc(-c2ccc3c(c2)CCO3)n1` [Compound 32, N-(3-(Benzylthio)-1H-1,2,4-triazol-5-yl)-2-(2,3-dihydrobenzofuran-5-yl)thiazole-4-carboxamide], in that order: 3000 to 10000 nM and 1350 nM.
Turning to `O=C(NCC1CCCO1)c1ccc2[nH]c(NC(=O)c3csc(-c4ccc5c(c4)CCO5)n3)nc2c1` (stereo not drawn) [Compound 35, 2-(2,3-Dihydrobenzofuran-5-yl)-N-(5-(((tetrahydrofuran-2-yl)methyl)carbamoyl)-1H-benzo[d]imidazol-2-yl)thiazole-4-carboxamide], the half-maximal inhibitory concentration (IC50) in test [1] is under 1000 nM; against DYRK1B, under 0.5 nM.
Taken in the same sequence, the figures for `CN1CCN(c2ccc3nc(NC(=O)c4csc(-c5ccc6c(c5)CCO6)n4)sc3c2)CC1` [Compound 41, 2-(2,3-Dihydrobenzofuran-5-yl)-N-(6-(4-methylpiperazin-1-yl)benzo[d]thiazol-2-yl)thiazole-4-carboxamide] were 3000 to 10000 nM and 19.5 nM.
For `Cc1n[nH]c(NC(=O)c2csc(-c3ccc4c(c3)CCO4)n2)n1` [Compound 44, 2-(2,3-Dihydrobenzofuran-5-yl)-N-(3-methyl-1H-1,2,4-triazol-5-yl)thiazole-4-carboxamide], in that order: 3000 to 10000 nM and 60.1 nM.
For the molecule `O=C(Nc1nc(-c2cccnc2)n[nH]1)c1csc(-c2ccc3c(c2)CCO3)n1` [Compound 45, 2-(2,3-Dihydrobenzofuran-5-yl)-N-(3-(pyridin-3-yl)-1H-1,2,4-triazol-5-yl)thiazole-4-carboxamide], the half-inhibitory concentration (IC50) is 1000 to 3000 nM in test [1] and 2.81 nM on DYRK1B.
Consider `O=C(Nc1nc(-c2ccco2)n[nH]1)c1csc(-c2ccc3c(c2)CCO3)n1` [Compound 46, 2-(2,3-Dihydrobenzofuran-5-yl)-N-(3-(furan-2-yl)-1H-1,2,4-triazol-5-yl)thiazole-4-carboxamide], for which the IC50 is 3000 to 10000 nM in test [1] and 15.3 nM on DYRK1B.
For `CCN1CCN(C(=O)c2ccc3[nH]c(NC(=O)c4csc(-c5ccc6c(c5)CCO6)n4)nc3c2)CC1` [Compound 47, 2-(2,3-Dihydrobenzofuran-5-yl)-N-(5-(4-ethylpiperazine-1-carbonyl)-1H-benzo[d]imidazol-2-yl)thiazole-4-carboxamide], in that order: under 1000 nM and 2.17 nM.

For the origin of these results see patent US10005769B2, “2,3-dihydrobenzofuran-5YL compounds as DYRK kinase inhibitors” (4SC DISCOVERY GMBH, priority 2013, dated 2018).
